Data as given in US4122077A, “Somatostatin analogs” (American Home Products Corporation, priority 1977, dated 1978).
Where a SMILES comes first, the peptide text is derived from it. Bridges are numbered along the chain shown (N, C = ends). [ ]: non-standard residue; d: D form.

What was measured:
growth hormone (GH) = assay: Suppression of growth hormone (duration of activity after sc injection); type: in vivo, rats; conditions: 1000 μg/kg. sc, rats
Protocol: A subcutaneous (sc) injection of peptide solubilized or suspended in physiological saline, is given to Charles River CD® nonfasted male rats. Matched saline control solution sc injected rats serve as control animals so that every experimental rat is paired with a control rat. The rats are kept in separate cages and 20 minutes before the end of the test time period they are given an intraperitoneal (i.p.) injection of Nembutal® at a dose of 50 mg/kg. Blood samples are obtained by cardiac puncture and the plasma separated for the radioimmunoassay of growth hormone (GH) concentration (ng/ml.). Time periods after injection of 2, 4, 5, and 6 hours are generally used to test the duration of the activity of the peptide to suppress circulating peripheral GH levels. Comparisons between control and experimental GH values at each time are evaluated by the Student "t" test and statistical significance (p) at the 0.05 level or lower is used as the index of activity.

growth hormone = assay: Suppression of growth hormone, glucagon and insulin (arginine-stimulated, nembutal rats): GH; type: in vivo; conditions: arginine challenge (table 5)
Protocol: (§1) Albino male rats are arranged in three groups (nine rats/group) and injected i.p. with nembutal at 50mg/kg. 15 minutes after the nembutal injection they are injected s.c. according to group with (a) test compound, typically 10-2000 μg/kg.; (b) SRIF 200 μg/kg.; or (c) physiological saline. 10 minutes later 0.5 ml. of arginine (300 mg/ml., pH 7.2) is injected into the heart. The rats are decapitated 5 minutes after receiving the arginine, and the blood is collected into Trasylol-EDTA. Appropriate aliquots are then assayed for growth hormone, glucagon and insulin. […] Comparisons between control and experimental values are statistically evaluated by the analysis of variants method and statistical significance (p) at 0.05 or lower is used as the index of activity.

insulin = assay: Suppression of growth hormone, glucagon and insulin (arginine-stimulated, nembutal rats): insulin; type: in vivo; conditions: arginine challenge
Protocol: as §1

glucagon = assay: Suppression of growth hormone, glucagon and insulin (arginine-stimulated, nembutal rats): glucagon; type: in vivo; conditions: arginine challenge
Protocol: as §1

| SMILES | GH, 2 Hours (growth hormone (GH)) [ng/mL] | GH, 4 Hours (growth hormone (GH)) [ng/mL] | GH, 5 Hours (growth hormone (GH); 5 hours) [ng/mL] | GH, 6 Hours (growth hormone (GH); 6 hours) [ng/mL] | GH (growth hormone; 100 μg/kg. s.c.) | Insulin (insulin; 100 μg/kg. s.c.) [μU/ml.] | Glucagon (glucagon; 100 μg/kg. s.c.) [pg/mL] | GH (growth hormone; 200 μg/kg. s.c.) | Insulin (insulin; 200 μg/kg. s.c.) [μU/ml.] | Glucagon (glucagon; 200 μg/kg. s.c.) [pg/mL] |
| --- | --- | --- | --- | --- | --- | --- | --- | --- | --- | --- |
| CC(C)C[C@H]1NC(=O)[C@@H](N)CSSC[C@@H](C(=O)O)NC(=O)[C@H](CO)NC(=O)[C@H]([C@@H](C)O)NC(=O)[C@H](Cc2ccccc2)NC(=O)[C@H]([C@@H](C)O)NC(=O)[C@H](CCCCN)NC(=O)[C@@H](Cc2c[nH]c3ccccc23)NC(=O)[C@H](Cc2ccccc2)NC(=O)[C@H](Cc2ccccc2)NC(=O)[C@@H](Cc2ccc(O)cc2)NC1=O [G, L-Cysteinyl-D-Leucyl-D-Tyrosyl-L-Phenylalanyl-L-Phenylalanyl-D-Trypotophyl-L-Lysyl-L-Threonyl-L-Phenylalanyl-L-Threonyl-L-Seryl-L-Cysteine Cyclic (1-12)-Disulfide] (H-C[dL][dY]FF[dW]KTFTSC-OH; disulfide 1-12) | 84 ± 11 | 94 ± 23 | 93 ± 30 | 72 ± 68 | 29 ± 16 | 218 ± 44 | 28 ± 16 | – | – | – |
| C[C@@H](O)[C@@H]1NC(=O)[C@H](Cc2ccccc2)NC(=O)[C@H]([C@@H](C)O)NC(=O)[C@H](CCCCN)NC(=O)[C@@H](Cc2c[nH]c3ccccc23)NC(=O)[C@H](Cc2ccccc2)NC(=O)[C@H](Cc2ccccc2)NC(=O)[C@@H](Cc2c[nH]cn2)NC(=O)[C@@H](Cc2c[nH]cn2)NC(=O)[C@@H](N)CSSC[C@@H](C(=O)O)NC(=O)[C@H](CO)NC1=O [E, L-Cysteinyl-D-Histidyl-D-Histidyl-L-Phenylalanyl-L-Phenylalanyl-D-Tryptophyl-L-Lysyl-L-Threonyl-L-Phenylalanyl-L-Threonyl-L-Seryl-L-Cysteine Cyclic (1-12)-Disulfide] (H-C[dH][dH]FF[dW]KTFTSC-OH; disulfide 1-12) | 36 ± 16 | 45 ± 10 | – | – | – | – | – | 34 ± 3 | 182 ± 18 | 29 ± 12 |
